Laboratory results published in US11554171B2, “Compounds and methods for the targeted degradation of bromodomain-containing proteins” (Arvinas Operations, Inc., priority 2015, dated 2023).

Test system: c-myc in 22RV-1 cells
Assay: Human c-myc ELISA assay
Type: cell-based
Details: Homo sapiens; for Emax: 22Rv1, 18 h, read-out: Degradation of BRD4: Maximum inhibition (%) c-Myc ELISA in 22RV1 cells; for DC50: 22Rv1, read-out: Degradation of BRD4: DC50 (uM) c-Myc ELISA in 22RV1 cells
Outline: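 22RV-1 cells treated 18 h with 8-point 1:3 compound dilutions (final top 300 nM or 1 μM, 0.1% DMSO). Cells lysed in RIPA buffer with protease/phosphatase inhibitors, and c-myc protein in cleared lysate quantified by ELISA against a standard curve. DC50 reported for c-myc suppression.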

SMILES | DC50 [µM] | Emax [%]
Cc1ncsc1-c1ccc([C@H](C)NC(=O)[C@@H]2C[C@@H](O)CN2C(=O)[C@H](C(C)C)n2cc(-c3ccnc(O[C@H]4C[C@H](NC(=O)C[C@@H]5N=C(c6ccc(Cl)cc6)c6c(sc(C)c6C)-n6c(C)nnc65)C4)c3)cn2)cc1 [Example 228, (2S,4R)-4-hydroxy-N-[(1S)-1-[4-(4-methyl-1,3-thiazol-5-yl)phenyl]ethyl]-1-[(2S)-3-methyl-2-(4-{2-[(1r,3r)-3-{2-[(9S)-7-(4-chlorophenyl)-4,5,13-trimethyl-3-thia-1,8,11,12-tetraazatricyclo[8.3.0.0^2,^6]trideca-2(6),4,7,10,12-pentaen-9-yl]acetamido}cyclobutoxy]pyridin-4-yl}-1H-pyrazol-1-yl)butanoyl]pyrrolidine-2-carboxamide] | < 0.01 | 100
Cc1ncsc1-c1ccc([C@H](C)NC(=O)[C@@H]2C[C@@H](O)CN2C(=O)[C@@H](NC(=O)c2cc3ccc(O[C@H]4C[C@H](NC(=O)C[C@@H]5N=C(c6ccc(Cl)cc6)c6c(sc(C)c6C)-n6c(C)nnc65)C4)cc3o2)C(C)(C)C)cc1 [Example 229] | < 0.01 | 100
Cc1ncsc1-c1ccc(CNC(=O)[C@@H]2C[C@@H](O)CN2C(=O)[C@@H](C(C)C)n2cc(-c3cccc(O[C@H](C)CNC(=O)C[C@@H]4N=C(c5ccc(Cl)cc5)c5c(sc(C)c5C)-n5c(C)nnc54)c3)cn2)cc1 [Example 231] | > 1 | 39.5
Cc1ncsc1-c1ccc(CNC(=O)[C@@H]2C[C@@H](O)CN2C(=O)[C@H](C(C)C)n2cc(-c3cccc(O[C@H](C)CNC(=O)C[C@@H]4N=C(c5ccc(Cl)cc5)c5c(sc(C)c5C)-n5c(C)nnc54)c3)cn2)cc1 [Example 232] | 0.01 to 0.1 | 83
Cc1ncsc1-c1ccc([C@H](C)NC(=O)[C@@H]2C[C@@H](O)CN2C(=O)[C@H](n2cc(-c3ccnc(O[C@H]4C[C@H](NC(=O)C[C@@H]5N=C(c6ccc(Cl)cc6)c6c(sc(C)c6C)-n6c(C)nnc65)C4)c3)cn2)C(C)(C)C)cc1 [Example 233] | > 1 | 26
Cc1ncsc1-c1ccc([C@H](C)NC(=O)[C@@H]2C[C@@H](O)CN2C(=O)[C@@H](NC(=O)Cc2ccc(N3CC[C@H](NC(=O)C[C@@H]4N=C(c5ccc(Cl)cc5)c5c(sc(C)c5C)-n5c(C)nnc54)C3)cc2)C(C)(C)C)cc1 [Example 235, (2S,4R)-1-[(2S)-2-(2-{4-[(3S)-3-{2-[(9S)-7-(4-chlorophenyl)-4,5,13-trimethyl-3-thia-1,8,11,12-tetraazatricyclo[8.3.0.0^2,^6]trideca-2(6),4,7,10,12-pentaen-9-yl]acetamido}pyrrolidin-1-yl]phenyl}acetamido)-3,3-dimethylbutanoyl]-4-hydroxy-N-[(1S)-1-[4-(4-methyl-1,3-thiazol-5-yl)phenyl]ethyl]pyrrolidine-2-carboxamide] | < 0.01 | 97.5
Cc1ncsc1-c1ccc([C@H](C)NC(=O)[C@@H]2C[C@@H](O)CN2C(=O)[C@@H](NC(=O)COc2ccc(N3CC[C@H](NC(=O)C[C@@H]4N=C(c5ccc(Cl)cc5)c5c(sc(C)c5C)-n5c(C)nnc54)C3)nc2)C(C)(C)C)cc1 [Example 236] | 0.01 to 0.1 | 88.9
Cc1ncsc1-c1ccc(CNC(=O)[C@@H]2C[C@@H](O)CN2C(=O)[C@@H](C(C)C)n2cc(Oc3ccc(CNC(=O)C[C@@H]4N=C(c5ccc(Cl)cc5)c5c(sc(C)c5C)-n5c(C)nnc54)cc3)cn2)cc1 [Example 237] | > 1 | 13.8
Cc1ncsc1-c1ccc([C@H](C)NC(=O)[C@@H]2C[C@@H](O)CN2C(=O)[C@@H](n2cc(-c3ccnc(O[C@H]4C[C@@H](NC(=O)C[C@@H]5N=C(c6ccc(Cl)cc6)c6c(sc(C)c6C)-n6c(C)nnc65)C4)c3)cn2)C(C)(C)C)cc1 [Example 240] | < 0.01 | 97
Cc1ncsc1-c1ccc([C@H](C)NC(=O)[C@@H]2C[C@@H](O)CN2C(=O)[C@@H](NC(=O)COc2ccc(N3CC[C@@H](NC(=O)C[C@@H]4N=C(c5ccc(Cl)cc5)c5c(sc(C)c5C)-n5c(C)nnc54)C3)nc2)C(C)(C)C)cc1 [Example 242] | < 0.01 | 98
Cc1ncsc1-c1ccc([C@H](C)NC(=O)[C@@H]2C[C@@H](O)CN2C(=O)[C@@H](C(C)C)n2cc(-c3cccc(O[C@H]4C[C@H](NC(=O)C[C@@H]5N=C(c6ccc(Cl)cc6)c6c(sc(C)c6C)-n6c(C)nnc65)C4)c3)cn2)cc1 [Example 244] | 0.01 to 0.1 | 95.5
Cc1ncsc1-c1ccc([C@H](C)NC(=O)[C@@H]2C[C@@H](O)CN2C(=O)[C@@H](C(C)C)n2cc(-c3ccnc(N4CC(NC(=O)C[C@@H]5N=C(c6ccc(Cl)cc6)c6c(sc(C)c6C)-n6c(C)nnc65)C4)c3)cn2)cc1 [Example 247] | > 1 | 24.1
Cc1ncsc1-c1ccc([C@H](C)NC(=O)[C@@H]2C[C@@H](O)CN2C(=O)[C@H](C(C)C)n2cc(-c3ccnc(N4CC(NC(=O)C[C@@H]5N=C(c6ccc(Cl)cc6)c6c(sc(C)c6C)-n6c(C)nnc65)C4)c3)cn2)cc1 [Example 248] | 0.01 to 0.1 | 95.9
Cc1ncsc1-c1ccc([C@H](C)NC(=O)[C@@H]2C[C@@H](O)CN2C(=O)[C@@H](NC(=O)Cc2ccc(O[C@H]3C[C@H](NC(=O)C[C@@H]4N=C(c5ccc(Cl)cc5)c5c(sc(C)c5C)-n5c(C)nnc54)C3)cc2F)C(C)(C)C)cc1 [Example 249, (2S,4R)-1-[(2S)-2-(2-{2-fluoro-4-[(1r,3r)-3-{2-[(9S)-7-(4-chlorophenyl)-4,5,13-trimethyl-3-thia-1,8,11,12-tetraazatricyclo[8.3.0.0^2,^6]trideca-2(6),4,7,10,12-pentaen-9-yl]acetamido}cyclobutoxy]phenyl}acetamido)-3,3-dimethylbutanoyl]-4-hydroxy-N-[(1S)-1-[4-(4-methyl-1,3-thiazol-5-yl)phenyl]ethyl]pyrrolidine-2-carboxamide] | < 0.01 | 98.5
Cc1sc2c(c1C)C(c1ccc(Cl)cc1)=N[C@@H](CC(=O)N[C@H]1C[C@H](Oc3ccc(CC(=O)N[C@H](C(=O)N4C[C@H](O)C[C@H]4C(=O)N[C@@H](C)c4ccc(-c5cnnn5C)cc4)C(C)(C)C)cc3)C1)c1nnc(C)n1-2 [Example 250] | > 1 | 16.1
Cc1ncsc1-c1ccc([C@H](C)NC(=O)[C@@H]2C[C@@H](O)CN2C(=O)[C@@H](NC(=O)COc2ccc(N3CC(NC(=O)C[C@@H]4N=C(c5ccc(Cl)cc5)c5c(sc(C)c5C)-n5c(C)nnc54)C3)nc2)C(C)(C)C)cc1 [Example 251, (2S,4R)-1-[(2S)-2-(2-{[6-(3-{2-[(9S)-7-(4-chlorophenyl)-4,5,13-trimethyl-3-thia-1,8,11,12-tetraazatricyclo[8.3.0.0^2,^6]trideca-2(6),4,7,10,12-pentaen-9-yl]acetamido}azetidin-1-yl)pyridin-3-yl]oxy}acetamido)-3,3-dimethylbutanoyl]-4-hydroxy-N-[(1S)-1-[4-(4-methyl-1,3-thiazol-5-yl)phenyl]ethyl]pyrrolidine-2-carboxamide] | < 0.01 | 92.3

Continued, in another order:

DC50 [µM] | SMILES | Emax [%]
< 0.01 | Cc1ncsc1-c1ccc([C@H](C)NC(=O)[C@@H]2C[C@@H](O)CN2C(=O)[C@@H](NC(=O)Cc2ccc(N3CC[C@@H](NC(=O)C[C@@H]4N=C(c5ccc(Cl)cc5)c5c(sc(C)c5C)-n5c(C)nnc54)C3)cc2)C(C)(C)C)cc1 [Example 230, (2S,4R)-1-[(2S)-2-(2-{4-[(3R)-3-{2-[(9S)-7-(4-chlorophenyl)-4,5,13-trimethyl-3-thia-1,8,11,12-tetraazatricyclo[8.3.0.0^2,^6]trideca-2(6),4,7,10,12-pentaen-9-yl]acetamido}pyrrolidin-1-yl]phenyl}acetamido)-3,3-dimethylbutanoyl]-4-hydroxy-N-[(1S)-1-[4-(4-methyl-1,3-thiazol-5-yl)phenyl]ethyl]pyrrolidine-2-carboxamide] | 100
0.01 to 0.1 | Cc1ncsc1-c1ccc([C@H](C)NC(=O)[C@@H]2C[C@@H](O)CN2C(=O)[C@@H](n2cc(-c3ccnc(O[C@H]4C[C@H](NC(=O)C[C@@H]5N=C(c6ccc(Cl)cc6)c6c(sc(C)c6C)-n6c(C)nnc65)C4)c3)cn2)C(C)(C)C)cc1 [Example 234] | 80.6
0.01 to 0.1 | Cc1ncsc1-c1ccc(CNC(=O)[C@@H]2C[C@@H](O)CN2C(=O)[C@H](C(C)C)n2cc(Oc3ccc(CNC(=O)C[C@@H]4N=C(c5ccc(Cl)cc5)c5c(sc(C)c5C)-n5c(C)nnc54)cc3)cn2)cc1 [Example 238] | 93.3
> 1 | Cc1ncsc1-c1ccc([C@H](C)NC(=O)[C@@H]2C[C@@H](O)CN2C(=O)[C@H](n2cc(-c3ccnc(O[C@H]4C[C@@H](NC(=O)C[C@@H]5N=C(c6ccc(Cl)cc6)c6c(sc(C)c6C)-n6c(C)nnc65)C4)c3)cn2)C(C)(C)C)cc1 [Example 239] | 39
> 1 | Cc1ncsc1-c1ccc([C@H](C)NC(=O)[C@@H]2C[C@@H](O)CN2C(=O)[C@@H](C(C)C)n2cc(-c3cccc(O[C@H]4C[C@@H](NC(=O)C[C@@H]5N=C(c6ccc(Cl)cc6)c6c(sc(C)c6C)-n6c(C)nnc65)C4)c3)cn2)cc1 [Example 241] | 49.8
< 0.01 | Cc1ncsc1-c1ccc([C@H](C)NC(=O)[C@@H]2C[C@@H](O)CN2C(=O)[C@H](C(C)C)n2cc(-c3cccc(O[C@H]4C[C@@H](NC(=O)C[C@@H]5N=C(c6ccc(Cl)cc6)c6c(sc(C)c6C)-n6c(C)nnc65)C4)c3)cn2)cc1 [Example 243] | 95.5
0.1 to 1 | Cc1ncsc1-c1ccc([C@H](C)NC(=O)[C@@H]2C[C@@H](O)CN2C(=O)[C@@H](C(C)C)n2cc(-c3cc(F)cc(O[C@H]4C[C@@H](NC(=O)C[C@@H]5N=C(c6ccc(Cl)cc6)c6c(sc(C)c6C)-n6c(C)nnc65)C4)c3)cn2)cc1 [Example 246] | 83
< 0.01 | Cc1ncsc1-c1ccc([C@H](C)NC(=O)[C@@H]2C[C@@H](O)CN2C(=O)[C@H](C(C)C)n2cc(-c3cc(F)cc(O[C@H]4C[C@@H](NC(=O)C[C@@H]5N=C(c6ccc(Cl)cc6)c6c(sc(C)c6C)-n6c(C)nnc65)C4)c3)cn2)cc1 [Example 252] | 97.5
